According to PubChem BioAssay (NCI):
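Results reflect a 48-hour exposure of cells in 96-well plates to compound at five concentrations. At the GI50, growth is halved. TGI: total growth inhibition.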

How the values were obtained:
Experiment in all cases: NCI anticancer screen, dose series, 48 h
[1] = tested on: LXFL 529 NSCLC
[2] = tested on: KM20L2 colon
[3] = tested on: HOP-18 NSCLC
[4] = tested on: M19-MEL melanoma
[5] = tested on: SNB-78 CNS
[6] = tested on: RXF-631 renal
[7] = tested on: XF 498 CNS
[8] = tested on: MDA-MB-231 breast
[9] = tested on: DU-145 prostate

| Structure (SMILES) | TGI [1] | TGI [2] | TGI [3] | TGI [4] | TGI [5] | TGI [6] | TGI [7] | GI50 [8] | TGI [8] | TGI [9] | GI50 [2] | GI50 [7] | GI50 [5] |
| --- | --- | --- | --- | --- | --- | --- | --- | --- | --- | --- | --- | --- | --- |
| C=C1C2CC(OC(C)=O)C3(C)C(c4ccoc4)OC(=O)[C@@H](O)[C@]13OC1C[C@H](OC(C)=O)C(C)(C)[C@H](C(O)C(=O)OC)[C@]12C (stereo not given in full) | > 100 µM | > 100 µM | > 100 µM | > 100 µM | > 100 µM |  |  |  |  |  |  |  |  |
| O=CC1=CCCN(CCc2c[nH]c3ccccc23)C1 | 45.8 µM | 122 µM | 109 µM | 152 µM |  | 102 µM |  |  |  |  |  |  |  |
| O=[N+]([O-])c1cc(I)cc(/C=N/NS(=O)(=O)c2ccc(F)cc2)c1O | 43.1 µM | > 100 µM | 53.2 µM | 86.7 µM | 69 µM | 57.9 µM |  |  |  |  |  |  |  |
| O=C(O)C(Cc1ccccc1)N=Cc1nc(-c2ccccc2)oc1O (stereo not given) | > 100 µM | > 100 µM |  | > 100 µM | > 100 µM | > 100 µM |  |  |  |  |  |  |  |
| CC(=O)OC1CC2C(C)(C)C(=O)C=C[C@]2(C)C2CCC3(C)C(c4ccoc4)C(=O)C4OC43[C@]12C (stereo not given in full) | > 100 µM | 32.1 µM | > 100 µM | 32.5 µM | > 100 µM |  |  |  |  |  |  |  |  |
| OCC1CC2C=CCC(C2)C1 (stereo not given) | > 100 µM | > 100 µM | > 100 µM | > 100 µM | > 100 µM |  | > 100 µM |  |  |  |  |  |  |
| CC(C)(C)OC(=O)NC(Cc1ccccc1)C(=S)N1CCCC1 (stereo not given) | > 100 µM | > 100 µM | > 100 µM | > 100 µM | > 100 µM | > 100 µM | > 100 µM |  |  |  |  |  |  |
| Cn1cnc(SC2=CC(=O)C=C3S[C@H]4C[C@@]23c2c(c(O)c3c5c2=NCCC=5C=N3)N4)c1CC(N)C(=O)O (stereo not given in full) |  | 11.6 µM | 30.7 µM | 3.89 µM | 38.4 µM |  | 31.4 µM | 6.6 µM | 20.3 µM | 32 µM | 2.48 µM | 17.6 µM | 15.3 µM |
| O=C(NC1CCCCC1)NC12CC3CC(CC(F)(C3)C1)C2 | > 100 µM | > 100 µM |  | > 100 µM | > 100 µM | > 100 µM | > 100 µM |  |  |  |  |  |  |
| Cc1ccc([N+](=O)[O-])cc1NC(=O)C(=O)Cc1nc2ccc(C(=O)c3ccccc3)cc2[nH]c1=O | > 100 µM | > 100 µM | > 100 µM | > 100 µM |  | > 100 µM | > 100 µM |  |  |  |  |  |  |
| O=C(N/C(=C\c1cccc([N+](=O)[O-])c1)c1nc2c3c(ccc2[nH]1)C(=O)c1ccccc1C3=O)c1ccccc1 | > 100 µM | > 100 µM | > 100 µM |  | > 100 µM |  | > 100 µM |  |  |  |  |  |  |
| Cc1ccc(NC(=O)C(=O)C2C(=O)NC(=O)NC2=O)c(C)c1 | > 100 µM | > 100 µM | > 100 µM | > 100 µM | > 100 µM | > 100 µM |  |  |  |  |  |  |  |
| Cn1c(=O)nc2n(-c3ccc(F)c(F)c3)c3ccccc3nc-2c1=O | 64.9 µM | 23.8 µM | 97.7 µM | 3.44 µM | 54.6 µM | 62.4 µM | 36.2 µM |  |  |  |  |  |  |
| CC1=NC(C)=C(/C(C)=N/NC(=O)c2ccccc2O)C(C)/C1=C(/C)NNC(=O)c1ccccc1O (stereo not given) | > 100 µM | > 100 µM |  | > 100 µM | > 100 µM | > 100 µM | 85.9 µM |  |  |  |  |  |  |
| CCOC(=O)NC(=O)c1cn(C2CCCCC2)c(=O)n(C)c1=O | > 100 µM | > 100 µM | > 100 µM | > 100 µM | > 100 µM | > 100 µM |  |  |  |  |  |  |  |
| C=CCC1(CN(C)C)CC/C(=C\c2cc(OC)c(OC)c(OC)c2)C1=O (stereo not given) | 35.2 µM | 44.4 µM | > 100 µM | > 100 µM | > 100 µM | 60.9 µM |  |  |  |  |  |  |  |
| Nc1ccc(C(=O)CC2(O)C(=O)Nc3ccccc32)cc1 (stereo not given) | > 100 µM | > 100 µM |  | > 100 µM | > 100 µM |  | > 100 µM |  |  |  |  |  |  |
| CCCC[C@H](CCc1ccccc1)N(C(=O)OC)N1CCC[C@H]1COC | 39.6 µM | 30.2 µM | 53.1 µM | 40.4 µM | 47.3 µM | 32.4 µM | 28.5 µM |  |  |  |  |  |  |
